Reference: article PMC6472966 (Analytical and bioanalytical chemistry, 2019)

Legend:
[1] = bulk, off-chip studies; cited from earlier work
[2] = tested on: HeLa cells; type: cell-based; conditions: 10 μM peptide, 60 min at 37°C, hierarchical cluster analysis, Fig. 4a
[3] = at high concentrations; cited from earlier work
[4] = cited from earlier work

Row | Substance | permeability efficiency on average compared to OWRWR and RWRWR [1] | normalized fluorescence of the largest cluster (subpopulation) [2] | cytotoxicity [3] | stability under intracellular conditions compared to TAT and ARG [4]
1 | FAM-RRRRRRRRR [ARG] | higher permeability efficiencies | ~ 1200 |  | 
2 | FAM-YGRKKRRQRRR [TAT] | higher permeability efficiencies |  | high cytotoxicity | 
3 | Ac-OWVRVpGO(FAM)WIRQ-NH2 [OWRWR] |  |  |  | enhanced stability
